Read-outs that look alike come from different tables or passages of the source.
Experiments:
SREBP [1] = assay: SREBP mRNA expression assay in HepG2 cells (RT-PCR); format: cell-based, human; conditions: for Effect on the induction of SREBP mRNA by LG100268: combined with LG100268 300 nM, GSK 2033 500 nM; for Effect on the induction of SREBP mRNA by LG100268 / SREBP mRNA expression compared to the vehicle control: HX 531 100 nM; for SREBP mRNA expression compared to the vehicle control: LG100268 300 nM, T0901317 500 nM, alone or combined; for SREBP activation Fold induction vs. Control / fold induction at 0.3 µM: HepG2 cells, 300 nM rexinoids, 8 h, SREBP mRNA by RT-PCR, mean ± SD of 3 experiments; for fold induction at 0.3 µM: Homo sapiens, read-out: SREBP activation Fold induction vs. Control
Method: The goals of our structure–activity relationship (SAR) studies were to explore and discover new scaffolds that not only bind to RXR but also are able to independently modulate both iNOS and SREBP activity in accordance with a previously described screening paradigm. To characterize the effect of the novel rexinoids on SREBP elevation in vitro, HepG2 cells were treated with 300 nM rexinoids for 8 h and SREBP mRNA levels were measured by RT-PCR. SREBP expression ranged from no change to a 4.6-fold induction compared to the vehicle control when treated with the novel compounds. […] Analogs MSU- 41402, 41582, 41407, 41566, 41844, 41845, 42011, and 42166 induced an SREPB mRNA fold expression change of 1–1.5 normalized to a vehicle control, while bexarotene induced an mRNA fold expression change of > 2 (Table 1).
(§1) HepG2 were plated in 6-well plates (1 × 10^6 cells/well) and, after allowing the cells to attach overnight, were treated with 300 nM rexinoids and/or varying concentrations of T0901317 (TOCRIS # 2373), GSK 2033 (TOCRIS # 5694), HX 531 (TOCRIS # 3912) for 8 h. Total RNA was isolated with TRIzol (Invitrogen, Carlsbad, CA) and 2 µg RNA was used to synthesize cDNA using the SuperScript III reverse transcriptase kit (Invitrogen, Carlsbad, CA). Primers (IDT) for SREBP (F: 5′-GCCGGTTGATAGGCAGCTT-3′; R: 5′-GGTGAGTGGCGGAACCATT-3′) and GAPDH (F: 5′-[…]-3′; R: 5′-[…]-3′), the SYBR Green Supermix (Bio-rad Laboratories, Hercules, CA) and the QuantStudio 7 Flex Real-Time PCR system (95 °C for 20 s followed by 40 cycles of 95 °C for 15 s and 60 °C for 1 min were used to detect mRNA expression. Relative SREBP/GAPDH gene expression was calculated by the delta-delta Ct method. To evaluate protein expression by western blotting, HepG2 cells were plated as above and treated with 300 nM of rexinoids for 24 h. Cells were harvested and lysed in RIPA buffer (1 M Tris–Cl, 5 M NaCl, pH 7.4, 0.5 M EDTA, 25 mM sodium deoxycholate, 1% triton-X, 0.1% SDS, 0.0125% aprotinin) with protease inhibitors (1% PMSF/0.5% apoprotein/0.1%leupeptin). Protein concentration was measured using a BCA assay (Sigma-Aldrich). Proteins (10 µg/well) were separated in 10% SDS-PAGE gels and transferred to nitrocellulose membranes. Membranes were incubated with SREBP (Active Motif; 1:1000) and GAPDH (Santa Cruz Biotechnology; 1:8000) primary antibodies followed by anti-rabbit secondary antibodies conjugated to horseradish peroxidase (Cell Signaling). Signal was detected using the ECL Western Blotting Substrate (GE Healthcare), and protein levels quantified using ImageJ.

SREBP [2] = assay: SREBP protein expression in HepG2 cells (western blot); format: cell-based, human; conditions: 300 nM rexinoids, 24 h
Method: Although we have confirmed that the iNOS assay correlates with in vivo efficacy, few investigators have used the induction of SREBP in vitro as a biomarker to predict the ability of novel rexinoids to increase triglycerides in vivo. Elevated triglycerides are a side-effect found with many RXR agonists in preclinical models and by bexarotene in humans[13],[14]. […] HepG2 human liver cells were used, as the liver is the major organ that regulates lipid homeostasis.
as §1

A549 lung cancer cells = assay: MTT proliferation assay; format: cell-based, human; conditions: 0–1 μM rexinoids, 72 hr
Method: were treated with 0-1 μM rexinoids for 72 hr. Proliferation was measured using the MTT assay.
MTT Assay. A549 cells were plated in 96-well plates (2,000 cells/well). After overnight attachment, cells were treated with 2 fold dilutions (0-1000 nM rexinoids) for 72 hr. 50 μL 3-(4,5-dimethylthiazol-2-yl)-2,5-diphenyltetrazolium bromide (MTT; Sigma M2128) was added to each well, and cells were incubated at 37 °C for 4 hr. Media was removed and cells were lysed with developing solution (0.04 M HCl in isopropanol). Plates were read at 550 nm.
(also on this page, place not known: 110A549 Cell Proliferation (% DMSO Control) 37°C)

[3] = Plasma triglycerides in MMTV-neu mice fed rexinoids; format: in vivo; conditions: MMTV-neu mice fed rexinoids for 10 days, n=5-6 mice/group
Method: fold expression triglyceride
Supplemental Fig 1. Correlation of SREPB mRNA expression and triglyceride levels. HepG2 human liver cells were treated with 300 nM of rexinoids for 8 hr,and lysates analyzed by RT-PCR. Triglycerides in plasma from MMTV-neu mice fed rexinoids for10 days were measured using a commercial kit(Abcam). *, p <0.01 vs control; **, p<0.05 vs bex and LG268; n=5-6 mice/group.

iNOS = iNOS inhibition assay (LPS-induced NO production, Griess reaction); format: cell-based, murine; conditions: RAW264.7 cells, 0–1000 nM rexinoids, LPS 1 ng/ml 24 h, NO by Griess assay, mean ± SE of 3 experiments, read-out: iNOS suppression IC50
Method: To evaluate the anti-inflammatory effects of the novel rexinoids, we utilized the iNOS suppression assay. Inhibition of iNOS in vitro directly correlates with efficacy in our preclinical model of Kras-driven lung cancer. RAW264.7 macrophage-like cells were treated with 0–1 μM rexinoids and stimulated with 1 ng/mL lipopolysaccharide for 24 h, and then NO was measured in the media.
RAW264.7 cells were plated in 96-well plates (20,000 cells/well). After overnight attachment, cells were treated with twofold serial dilutions (0–1000 nM) of rexinoids. After a 20 min incubation at 37 °C, cells were stimulated with 1 ng/mL LPS for 24 h. NO production was measured in culture medium using the Griess reaction. IC50 values were calculated using GraphPad Prism 8.1.2 software for Windows using a log([nM drug concentration]) vs. response curve fit.

Structure (SMILES) | fold induction at 0.3 µM (SREBP [1]; HepG2, 8 h) | IC50 (iNOS; Mus musculus) [µM] | also measured
Cc1cc(C)c(S(=O)(=O)N(Cc2ccc(-c3cccc(S(C)(=O)=O)c3)cc2)Cc2ccc(C(F)(F)F)o2)c(C)c1 [GSK 2033] | – | – | SREBP mRNA expression lowered by (SREBP [1]; HepG2, 8 h, GSK 2033 500 nM alone): ~ 50%; Effect on the induction of SREBP mRNA by LG100268 (SREBP [1]; HepG2, 8 h): partially reversed the induction of SREBP by LG100268
CN1c2ccc([N+](=O)[O-])cc2N=C(c2ccc(C(=O)O)cc2)c2cc3c(cc21)C(C)(C)CCC3(C)C [HX 531] | – | – | SREBP mRNA expression compared to the vehicle control (SREBP [1]; HepG2, 8 h): did not alter SREBP mRNA expression; Effect on the induction of SREBP mRNA by LG100268 (SREBP [1]; HepG2, 8 h): reversed the induction of SREBP by LG100268
CC(/C=C/[C@@H]1C[C@]1(C)c1ccc2c(c1)C(C)(C)CCC2(C)C)=C\C(=O)O [IRX194204] | – | – | SREBP protein levels compared to DMSO control (SREBP [2]): increased SREBP protein levels
Cc1cc2c(cc1C1(c3ccc(C(=O)O)cn3)CC1)C(C)(C)CCC2(C)C [LG100268] | – | – | Growth / proliferation of A549 lung cancer cells (A549 lung cancer cells): do not inhibit proliferation; Plasma triglyceride levels in mice [3]: 3.42 ± 0.4 nmol/µL; SREBP mRNA expression compared to the vehicle control (SREBP [1]; HepG2, 8 h): 2.5 fold; SREBP activation Fold induction vs. Control (SREBP [1]): 3.06 ± 0.7 fold; IC50 (iNOS): 0.083 ± 0.014 µM; SREBP protein levels compared to DMSO control (SREBP [2]): increased SREBP protein levels
C/C(=C/C=C/C(C)=C/C(=O)O)c1cc(C(C)(C)C)cc(C(C)(C)C)c1OCC(F)F [LG101506] | – | – | Plasma triglyceride levels in mice [3]: 1.21 ± 0.1 nmol/µL; SREBP activation Fold induction vs. Control (SREBP [1]): 1.06 ± 0.3 fold; SREBP protein levels compared to DMSO control (SREBP [2]): did not
CCN(c1ccc(C(=O)O)cc1)c1cc(C(C)(C)C)cc(C(C)(C)C)c1 [MSU-41402] | 1.37 ± 0.3 | 0.343 ± 0.062 | –
C=C(c1ccc(C(=O)O)cc1)c1cc(C(C)(C)C)ccc1OCC [MSU-41403] | 2.68 ± 0.2 | 0.331 ± 0.045 | –
C=C(c1ccc(C(=O)O)cc1)c1cc2c(cc1C)CCCC2(C)C [MSU-41404] | 3.07 ± 0.5 | 0.34 ± 0.025 | –
C=C(c1ccc(C(=O)O)cc1)c1ccc(OCC(C)C)c(C(C)C)c1 [MSU-41405] | 1.87 ± 0.3 | 0.267 ± 0.032 | –
C=C(c1ccc(C(=O)O)cc1)c1cc(C(C)C)c(OCC(C)C)cc1C [MSU-41406] | 1.67 ± 0.2 | 0.252 ± 0.055 | –
C=C(c1ccc(C(=O)O)cc1)c1cc(C(C)C)c(OC(C)C)cc1C [MSU-41407] | 1.08 ± 0.1 | 0.334 ± 0.017 | –
C=C(c1ccc(C(=O)O)cc1)c1cc(C(C)C)c(OCC)cc1C [MSU-41408] | 2.55 ± 0.7 | 0.3 ± 0.079 | –
CCN(c1cc(C(C)(C)C)cc(C(C)(C)C)c1)c1ccc(C(=O)O)cn1 [MSU-41564] | 2.62 ± 0.7 | 0.248 ± 0.06 | –
CCOc1c(N(CC)c2ccc(C(=O)O)cc2)cc(C(C)(C)C)cc1C(C)(C)C [MSU-41565] | 1.59 ± 0.2 | 0.366 ± 0.049 | –
C=C(c1ccc(C(=O)O)cc1)c1cc(C(C)(C)C)cc(C(C)(C)C)c1 [MSU-41566] | 1.12 ± 0.5 | 0.239 ± 0.053 | –
CC(C)(C)c1cc(-n2c(C(F)(F)F)nc3cc(C(=O)O)ccc32)cc(C(C)(C)C)c1 [MSU-41567] | 1.58 ± 0.2 | 0.271 ± 0.092 | –
CCN(c1cc(C(C)(C)C)cc(C(C)(C)C)c1)c1ncc(C(=O)O)cn1 [MSU-41582] | 1.38 ± 0.4 | 0.295 ± 0.054 | –
CCN(c1ccc(C(=O)O)cn1)c1cc(C(C)(C)C)ccc1C [MSU-41583] | 1.59 ± 0.5 | 0.29 ± 0.061 | –
CC(C)(C)c1cc(N(CC2CC2)c2ccc(C(=O)O)cn2)cc(C(C)(C)C)c1 [MSU-41843] | 2.48 ± 1.8 | 0.274 ± 0.033 | –
CCN(c1cc(C(F)(F)F)cc(C(F)(F)F)c1)c1ccc(C(=O)O)cn1 [MSU-41844] | 0.96 ± 0.5 | 0.389 ± 0.053 | –
CCN(c1ccc(C(=O)O)cc1)c1cc(C(C)C)c(OCC(C)C)cc1C [MSU-41845] | 1.45 ± 0.2 | 0.338 ± 0.031 | –
CCN(c1ccc(C(=O)O)cc1)c1cc(C(C)(C)C)c(OC)c(C(C)(C)C)c1 [MSU-41846] | 1.63 ± 0.3 | 0.347 ± 0.031 | –
O=S(=O)(c1ccccc1)N(CC(F)(F)F)c1ccc(C(O)(C(F)(F)F)C(F)(F)F)cc1 [T0901317] | – | – | SREBP mRNA expression compared to the vehicle control (SREBP [1]; HepG2, 8 h): 2.5 fold

Source: PMC7746742, “The novel rexinoid MSU-42011 is effective for the treatment of preclinical Kras-driven lung cancer” (Scientific Reports, 2020)
